Source: PMC8550792, “Evolution of kinase polypharmacology across HSP90 drug discovery” (Cell Chemical Biology, 2021)

Experiments:
Assay in all cases: biochemical
Type in all cases: biochemical
[1] = molecular target: T1, 382 unique human kinases (Homo sapiens, UniProt P07949, R813Q); conditions: RET (R813Q), 10 uM; for remaining activity at 10 µM: read-out: % Enzyme Activity (relative to DMSO controls)
T1 construct: purchased Reaction Biology (HotSpot contract assay)

[2] = molecular target: T2, 382 unique human kinases (Homo sapiens, UniProt P16234); conditions: kinase PDGFRa, compound 10 uM; for remaining activity at 10 µM: read-out: % Enzyme Activity (relative to DMSO controls)
T2 construct: purchased Reaction Biology (HotSpot contract assay)

[3] = molecular target: T3, 382 unique human kinases (Homo sapiens, UniProt P51817); conditions: PRKX, compound at 10 uM, duplicate values; for remaining activity at 10 µM: read-out: % Enzyme Activity (relative to DMSO controls)
T3 construct: purchased Reaction Biology (HotSpot contract assay)
T3 sequence (P51817 1-358): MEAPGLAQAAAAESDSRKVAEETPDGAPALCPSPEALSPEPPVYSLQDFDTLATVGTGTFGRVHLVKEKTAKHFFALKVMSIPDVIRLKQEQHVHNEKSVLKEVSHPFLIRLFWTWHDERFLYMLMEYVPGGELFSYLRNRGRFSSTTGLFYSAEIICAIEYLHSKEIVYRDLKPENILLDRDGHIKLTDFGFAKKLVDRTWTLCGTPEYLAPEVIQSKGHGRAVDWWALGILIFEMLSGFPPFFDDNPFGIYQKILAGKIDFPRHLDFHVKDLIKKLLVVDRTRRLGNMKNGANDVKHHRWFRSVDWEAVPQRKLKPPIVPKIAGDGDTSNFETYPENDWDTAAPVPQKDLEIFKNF

[4] = molecular target: T4, 382 unique human kinases (Homo sapiens, UniProt Q06187, P190K); conditions: BTK (P190K), 10 uM; for remaining activity at 10 µM: read-out: % Enzyme Activity (relative to DMSO controls)
T4 construct: purchased Reaction Biology (HotSpot contract assay)

[5] = molecular target: T5, 382 unique human kinases (Homo sapiens, UniProt Q13557); conditions: CAMK2d, 10 uM; for remaining activity at 10 µM: read-out: % Enzyme Activity (relative to DMSO controls)
T5 construct: purchased Reaction Biology (HotSpot contract assay)

[6] = molecular target: T6, 382 unique human kinases (Homo sapiens, UniProt Q15831); conditions: LKB1, compound at 10 uM, duplicate values; for remaining activity at 10 µM: read-out: % Enzyme Activity (relative to DMSO controls)
T6 construct: purchased Reaction Biology (HotSpot contract assay)
T6 sequence (Q15831 1-433): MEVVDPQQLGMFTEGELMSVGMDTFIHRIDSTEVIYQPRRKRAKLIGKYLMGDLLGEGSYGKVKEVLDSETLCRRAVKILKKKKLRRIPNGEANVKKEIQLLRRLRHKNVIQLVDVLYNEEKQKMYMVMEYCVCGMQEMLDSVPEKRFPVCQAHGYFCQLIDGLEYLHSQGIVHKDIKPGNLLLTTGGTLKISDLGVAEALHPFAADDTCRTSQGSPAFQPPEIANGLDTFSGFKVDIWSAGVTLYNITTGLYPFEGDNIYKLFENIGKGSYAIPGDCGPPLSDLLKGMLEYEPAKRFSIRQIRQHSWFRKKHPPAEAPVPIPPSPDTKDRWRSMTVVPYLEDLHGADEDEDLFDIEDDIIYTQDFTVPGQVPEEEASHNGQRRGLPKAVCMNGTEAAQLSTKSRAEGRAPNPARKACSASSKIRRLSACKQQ

[7] = molecular target: T7, 382 unique human kinases (Homo sapiens, UniProt Q16816); conditions: kinase PHKg1, compound 10 uM; for remaining activity at 10 µM: read-out: % Enzyme Activity (relative to DMSO controls)
T7 construct: purchased Reaction Biology (HotSpot contract assay)

[8] = molecular target: T8, 382 unique human kinases (Homo sapiens, UniProt Q9BXA7); conditions: STK22D/TSSK1, 10 uM; for remaining activity at 10 µM: read-out: % Enzyme Activity (relative to DMSO controls)
T8 construct: purchased Reaction Biology (HotSpot contract assay)
T8 sequence (Q9BXA7 1-367): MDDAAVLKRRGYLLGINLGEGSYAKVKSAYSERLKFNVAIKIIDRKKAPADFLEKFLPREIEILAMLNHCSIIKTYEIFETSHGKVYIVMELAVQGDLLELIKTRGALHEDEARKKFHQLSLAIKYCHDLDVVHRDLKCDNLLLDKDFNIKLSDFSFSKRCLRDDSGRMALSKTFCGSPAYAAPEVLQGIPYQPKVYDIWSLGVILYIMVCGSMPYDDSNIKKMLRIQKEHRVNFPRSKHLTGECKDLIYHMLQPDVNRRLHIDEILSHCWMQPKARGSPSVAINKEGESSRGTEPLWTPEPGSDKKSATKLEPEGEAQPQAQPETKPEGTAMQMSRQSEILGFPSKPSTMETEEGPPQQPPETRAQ

[9] = molecular target: T9, 382 unique human kinases (Homo sapiens, UniProt P10721, D816E); conditions: c-Kit (D816E), [ATP] 50 µM, compound 10 uM; for remaining activity at 10 µM: read-out: % Enzyme Activity (relative to DMSO controls)
T9 construct: purchased Reaction Biology (HotSpot contract assay)

[10] = molecular target: T10, 382 unique human kinases (Homo sapiens, UniProt P36888, D835Y); conditions: FLT3 (D835Y), [ATP] 20 µM, compound 10 uM; for remaining activity at 10 µM: read-out: % Enzyme Activity (relative to DMSO controls)
T10 construct: purchased Reaction Biology (HotSpot contract assay)
T10 sequence (P36888 27-993 D835Y): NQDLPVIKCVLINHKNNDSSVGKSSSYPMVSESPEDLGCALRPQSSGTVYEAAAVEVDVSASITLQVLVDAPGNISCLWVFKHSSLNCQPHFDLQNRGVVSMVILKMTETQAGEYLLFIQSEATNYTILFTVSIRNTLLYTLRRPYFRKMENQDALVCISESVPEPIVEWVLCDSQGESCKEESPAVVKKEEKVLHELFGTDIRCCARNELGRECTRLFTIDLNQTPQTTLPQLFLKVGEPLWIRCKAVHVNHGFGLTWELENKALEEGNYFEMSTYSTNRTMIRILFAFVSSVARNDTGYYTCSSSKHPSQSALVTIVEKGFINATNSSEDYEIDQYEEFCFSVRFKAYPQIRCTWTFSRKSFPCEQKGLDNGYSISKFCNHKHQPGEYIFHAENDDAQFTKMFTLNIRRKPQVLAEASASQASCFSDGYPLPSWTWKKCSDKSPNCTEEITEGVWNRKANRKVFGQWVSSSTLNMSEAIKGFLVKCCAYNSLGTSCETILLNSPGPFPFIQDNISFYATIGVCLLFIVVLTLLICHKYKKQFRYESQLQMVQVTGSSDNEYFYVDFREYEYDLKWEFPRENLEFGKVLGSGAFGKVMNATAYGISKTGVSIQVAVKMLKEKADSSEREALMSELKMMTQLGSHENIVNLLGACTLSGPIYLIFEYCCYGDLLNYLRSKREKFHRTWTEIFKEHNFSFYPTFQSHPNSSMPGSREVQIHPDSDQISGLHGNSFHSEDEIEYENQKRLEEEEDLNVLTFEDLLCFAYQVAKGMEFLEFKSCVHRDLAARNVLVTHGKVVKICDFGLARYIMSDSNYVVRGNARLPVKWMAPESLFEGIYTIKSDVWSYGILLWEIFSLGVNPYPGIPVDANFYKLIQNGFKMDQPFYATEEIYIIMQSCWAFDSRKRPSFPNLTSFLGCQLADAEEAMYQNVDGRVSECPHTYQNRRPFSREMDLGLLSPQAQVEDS

[11] = molecular target: T11, 382 unique human kinases (Homo sapiens, UniProt Q9HAZ1); conditions: CLK4, [ATP] 2.5 µM, compound 10 uM; for remaining activity at 10 µM: read-out: % Enzyme Activity (relative to DMSO controls)
T11 construct: purchased Reaction Biology (HotSpot contract assay)
T11 sequence (Q9HAZ1 whole entry): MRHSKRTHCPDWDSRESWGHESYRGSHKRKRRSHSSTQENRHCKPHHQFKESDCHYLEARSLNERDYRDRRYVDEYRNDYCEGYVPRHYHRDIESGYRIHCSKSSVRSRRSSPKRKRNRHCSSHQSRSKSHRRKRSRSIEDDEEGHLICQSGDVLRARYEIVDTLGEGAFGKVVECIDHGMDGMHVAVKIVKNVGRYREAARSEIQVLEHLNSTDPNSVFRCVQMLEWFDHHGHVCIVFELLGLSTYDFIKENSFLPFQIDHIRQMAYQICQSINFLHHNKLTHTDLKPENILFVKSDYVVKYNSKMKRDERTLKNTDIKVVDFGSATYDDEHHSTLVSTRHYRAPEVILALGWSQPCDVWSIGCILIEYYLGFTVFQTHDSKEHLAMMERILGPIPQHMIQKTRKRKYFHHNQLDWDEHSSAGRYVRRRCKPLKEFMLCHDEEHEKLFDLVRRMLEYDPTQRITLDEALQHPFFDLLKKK

T7 sequence (Q16816 whole entry): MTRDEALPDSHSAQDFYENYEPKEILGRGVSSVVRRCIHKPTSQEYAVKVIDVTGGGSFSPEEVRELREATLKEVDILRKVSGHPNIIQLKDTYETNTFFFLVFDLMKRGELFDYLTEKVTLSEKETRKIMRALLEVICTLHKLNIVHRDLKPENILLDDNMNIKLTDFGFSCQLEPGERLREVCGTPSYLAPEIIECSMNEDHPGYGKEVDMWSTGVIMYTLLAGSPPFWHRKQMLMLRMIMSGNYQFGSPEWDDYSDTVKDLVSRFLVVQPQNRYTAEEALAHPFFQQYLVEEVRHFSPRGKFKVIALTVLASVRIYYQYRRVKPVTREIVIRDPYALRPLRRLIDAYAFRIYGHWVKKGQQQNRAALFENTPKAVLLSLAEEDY
T9 sequence (P10721 26-976 D816E): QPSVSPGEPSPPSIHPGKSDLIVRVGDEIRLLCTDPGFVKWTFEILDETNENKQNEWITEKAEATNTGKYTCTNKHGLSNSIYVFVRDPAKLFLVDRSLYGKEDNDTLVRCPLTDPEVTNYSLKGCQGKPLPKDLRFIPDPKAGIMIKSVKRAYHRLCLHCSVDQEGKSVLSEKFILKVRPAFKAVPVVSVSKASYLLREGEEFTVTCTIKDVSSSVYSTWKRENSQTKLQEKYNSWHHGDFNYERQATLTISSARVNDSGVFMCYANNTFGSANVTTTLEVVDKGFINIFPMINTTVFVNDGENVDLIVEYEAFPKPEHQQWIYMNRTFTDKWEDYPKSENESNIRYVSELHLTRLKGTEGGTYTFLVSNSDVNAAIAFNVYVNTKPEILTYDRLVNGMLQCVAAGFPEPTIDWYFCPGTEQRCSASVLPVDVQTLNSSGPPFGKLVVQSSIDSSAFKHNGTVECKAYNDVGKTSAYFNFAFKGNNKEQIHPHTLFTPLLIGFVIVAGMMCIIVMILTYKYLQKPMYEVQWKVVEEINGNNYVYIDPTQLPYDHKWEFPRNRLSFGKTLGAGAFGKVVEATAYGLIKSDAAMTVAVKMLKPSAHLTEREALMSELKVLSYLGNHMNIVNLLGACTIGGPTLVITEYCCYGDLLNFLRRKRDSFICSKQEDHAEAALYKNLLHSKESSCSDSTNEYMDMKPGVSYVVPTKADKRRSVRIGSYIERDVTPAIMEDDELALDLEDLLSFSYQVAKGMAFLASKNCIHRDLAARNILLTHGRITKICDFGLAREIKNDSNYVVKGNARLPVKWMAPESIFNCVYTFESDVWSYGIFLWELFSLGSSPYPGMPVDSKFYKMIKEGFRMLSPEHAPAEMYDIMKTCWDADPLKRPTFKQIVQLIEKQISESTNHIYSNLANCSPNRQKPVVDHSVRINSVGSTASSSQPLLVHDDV
T2 sequence (P16234 24-1089): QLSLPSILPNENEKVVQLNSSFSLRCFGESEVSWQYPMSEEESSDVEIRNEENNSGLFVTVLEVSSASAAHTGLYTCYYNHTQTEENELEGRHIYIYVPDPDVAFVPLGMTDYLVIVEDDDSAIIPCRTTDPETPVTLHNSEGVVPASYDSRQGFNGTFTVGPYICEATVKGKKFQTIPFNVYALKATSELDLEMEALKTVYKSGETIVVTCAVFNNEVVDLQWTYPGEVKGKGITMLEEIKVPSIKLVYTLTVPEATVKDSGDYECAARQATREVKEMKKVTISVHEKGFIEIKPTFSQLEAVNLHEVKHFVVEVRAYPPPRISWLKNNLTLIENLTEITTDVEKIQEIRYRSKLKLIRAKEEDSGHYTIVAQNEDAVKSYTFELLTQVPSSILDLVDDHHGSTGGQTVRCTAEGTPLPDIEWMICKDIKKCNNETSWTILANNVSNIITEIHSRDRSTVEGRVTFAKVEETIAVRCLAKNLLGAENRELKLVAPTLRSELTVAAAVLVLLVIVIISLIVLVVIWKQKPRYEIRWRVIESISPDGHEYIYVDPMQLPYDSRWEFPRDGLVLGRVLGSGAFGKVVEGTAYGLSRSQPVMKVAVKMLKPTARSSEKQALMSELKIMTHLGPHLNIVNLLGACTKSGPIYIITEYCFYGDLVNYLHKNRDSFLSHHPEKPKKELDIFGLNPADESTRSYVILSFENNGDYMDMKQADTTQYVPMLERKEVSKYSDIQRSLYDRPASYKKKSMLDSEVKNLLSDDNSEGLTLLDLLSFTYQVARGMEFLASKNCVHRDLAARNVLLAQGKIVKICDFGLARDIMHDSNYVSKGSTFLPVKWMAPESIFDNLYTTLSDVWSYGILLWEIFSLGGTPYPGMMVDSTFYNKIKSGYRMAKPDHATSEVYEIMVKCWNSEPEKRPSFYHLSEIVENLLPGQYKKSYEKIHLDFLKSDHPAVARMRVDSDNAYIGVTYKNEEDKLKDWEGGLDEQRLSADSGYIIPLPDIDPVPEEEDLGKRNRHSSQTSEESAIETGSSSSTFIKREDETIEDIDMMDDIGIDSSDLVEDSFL
T4 sequence (Q06187 whole entry P190K): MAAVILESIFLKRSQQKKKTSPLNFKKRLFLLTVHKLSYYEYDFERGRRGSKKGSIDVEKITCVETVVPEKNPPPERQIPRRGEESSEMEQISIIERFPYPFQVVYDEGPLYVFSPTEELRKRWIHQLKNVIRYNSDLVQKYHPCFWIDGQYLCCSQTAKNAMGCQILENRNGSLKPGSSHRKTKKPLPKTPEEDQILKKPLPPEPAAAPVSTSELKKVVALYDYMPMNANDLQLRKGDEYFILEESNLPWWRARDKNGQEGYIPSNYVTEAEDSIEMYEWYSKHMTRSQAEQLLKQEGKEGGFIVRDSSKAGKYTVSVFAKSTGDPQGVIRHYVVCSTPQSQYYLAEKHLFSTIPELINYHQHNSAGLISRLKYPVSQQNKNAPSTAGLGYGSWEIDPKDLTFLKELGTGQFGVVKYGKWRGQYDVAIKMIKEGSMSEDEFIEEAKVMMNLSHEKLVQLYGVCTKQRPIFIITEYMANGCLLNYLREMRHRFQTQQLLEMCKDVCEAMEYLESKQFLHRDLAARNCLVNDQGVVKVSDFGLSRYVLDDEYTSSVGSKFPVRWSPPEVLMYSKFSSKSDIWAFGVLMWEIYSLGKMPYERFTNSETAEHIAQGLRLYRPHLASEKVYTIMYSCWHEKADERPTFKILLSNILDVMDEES
T5 sequence (Q13557 whole entry): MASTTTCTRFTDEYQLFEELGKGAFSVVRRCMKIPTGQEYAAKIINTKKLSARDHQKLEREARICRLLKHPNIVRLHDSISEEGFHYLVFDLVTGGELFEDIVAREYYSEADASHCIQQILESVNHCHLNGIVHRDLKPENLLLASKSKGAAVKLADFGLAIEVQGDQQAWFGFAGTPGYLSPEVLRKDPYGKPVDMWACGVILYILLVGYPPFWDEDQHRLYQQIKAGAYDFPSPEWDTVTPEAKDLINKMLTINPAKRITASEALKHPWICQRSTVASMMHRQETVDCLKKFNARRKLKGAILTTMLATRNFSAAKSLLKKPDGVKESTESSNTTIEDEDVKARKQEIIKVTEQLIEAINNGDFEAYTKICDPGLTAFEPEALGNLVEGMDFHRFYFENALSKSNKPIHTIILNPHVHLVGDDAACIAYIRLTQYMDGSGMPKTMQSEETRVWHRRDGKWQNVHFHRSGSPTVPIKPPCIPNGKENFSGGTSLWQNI

| Compound | remaining activity at 10 µM [1] [%] | remaining activity at 10 µM [2] [%] | remaining activity at 10 µM [3] [%] | remaining activity at 10 µM [4] [%] | remaining activity at 10 µM [5] [%] | remaining activity at 10 µM [6] [%] | remaining activity at 10 µM [7] [%] | remaining activity at 10 µM [8] [%] | remaining activity at 10 µM [9] [%] | remaining activity at 10 µM [10] [%] | remaining activity at 10 µM [11] [%] | further results |
| --- | --- | --- | --- | --- | --- | --- | --- | --- | --- | --- | --- | --- |
| CC(C)c1cc(-c2n[nH]c(=O)n2-c2ccc3c(ccn3C)c2)c(O)cc1O [Ganetespib (STA9090)] | 78 | 82.6 | 108 | 62.1 | 72.8 | 110 | 88.5 | 75.4 |  |  |  |  |
| CC(C)c1cc(-c2n[nH]c(=O)n2-c2ccc3c(ccn3C)c2)c(O)cc1O [Ganetespib] |  |  |  |  |  |  |  |  | 41.2 | 18.6 | 20.7 |  |
| CCNC(=O)c1noc(-c2cc(C(C)C)c(O)cc2O)c1-c1ccc(CN2CCOCC2)cc1 [Luminespib (AUY-922)] | 105 | 85.4 | 112 | 61.9 | 89.9 | 106 | 98.2 | 99.3 |  |  |  | % Enzyme Activity (relative to DMSO controls) [1]: 103.53%; % Enzyme Activity (relative to DMSO controls) [2]: 83.27%; % Enzyme Activity (relative to DMSO controls) [3]: 112.11%; % Enzyme Activity (relative to DMSO controls) [4]: 61.43%; % Enzyme Activity (relative to DMSO controls) [5]: 89.83%; % Enzyme Activity (relative to DMSO controls) [6]: 103.13%; % Enzyme Activity (relative to DMSO controls) [7]: 96.94%; % Enzyme Activity (relative to DMSO controls) [8]: 98.29% |
| CCNC(=O)c1noc(-c2cc(C(C)C)c(O)cc2O)c1-c1ccc(CN2CCOCC2)cc1 [Luminespib] |  |  |  |  |  |  |  |  | 76.2 | 78.6 | 72.1 | % Enzyme Activity (relative to DMSO controls) [9]: 73.14%; % Enzyme Activity (relative to DMSO controls) [10]: 78.51%; % Enzyme Activity (relative to DMSO controls) [11]: 71.69% |
